Measured values as given in PubChem BioAssay (NCI).
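Cells were grown in 96-well plates and exposed to each compound for 48 hours at five concentrations; endpoints were interpolated linearly between bracketing concentrations, or set to the highest concentration if not reached. At the TGI there is no net growth.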

Tests used:
Assay in all cases: inhibition of tumour cell growth, NCI panel, 48 h
RPMI-8226 leukemia = tested on: RPMI-8226 leukemia
EKVX NSCLC = tested on: EKVX NSCLC
NCI-H522 lung = tested on: NCI-H522 lung
NCI-H460 lung = tested on: NCI-H460 lung
SF-295 CNS = tested on: SF-295 CNS
HT29 colon = tested on: HT29 colon
PC-3 prostate = tested on: PC-3 prostate
RXF 393 renal = tested on: RXF 393 renal
OVCAR-5 ovarian = tested on: OVCAR-5 ovarian
SK-MEL-2 melanoma = tested on: SK-MEL-2 melanoma

| SMILES | TGI (RPMI-8226 leukemia) [µM] | TGI (EKVX NSCLC) [µM] | TGI (NCI-H522 lung) [µM] | TGI (NCI-H460 lung) [µM] | TGI (SF-295 CNS) [µM] | TGI (HT29 colon) [µM] | TGI (PC-3 prostate) [µM] | TGI (RXF 393 renal) [µM] | TGI (OVCAR-5 ovarian) [µM] | TGI (SK-MEL-2 melanoma) [µM] |
| --- | --- | --- | --- | --- | --- | --- | --- | --- | --- | --- |
| C#CC1(O)C(COP(=O)(O)OCC2OC(n3ccc(NCCCCCCCCCCCCCCCCCC)nc3=O)C(O)C2O)OC(n2ccc(N)nc2=O)C1O (configuration not stated) | > 73.8 | 54.1 | 0.773 | 34.4 | 18.6 | > 95 | 31.7 | 61.9 | 60.5 | 5.3 |
| Cc1noc2nnn(-c3ccc(Cl)cc3)c(=O)c12 | 3.11 | 20.4 | 2.24 | 21.3 | 27.8 | 17.2 | 19.2 | 4.79 | 20 | 10.5 |
| Cc1ccc(O)c(-c2cc(-c3cccc(Cl)c3)c(C#N)c(N)n2)c1 | 48.4 | 58.9 | 30 | 54 | 32.6 | 58.3 | 83.4 | 47.8 | 70.4 | 31.6 |
| CC1(CCCO)CCCCCCCCCC(C)(CCCO)C1=O (configuration not stated) | > 100 | > 100 | > 100 | > 100 | > 100 | > 100 | > 100 | > 100 | > 100 | > 100 |
| O=C/C=C/c1ccco1 | > 100 | > 100 | > 100 |  | > 100 | > 100 | > 100 | > 100 | > 100 | > 100 |
| O=C(CCCCCCC(=O)Nc1cccnc1)NO | > 29.4 | > 100 | 17.3 | > 100 | > 100 | > 37.4 | > 100 | 31 | > 32.1 | 17.9 |
| CCOC(=O)Cc1nc2sc(S(N)(=O)=O)nn2c1Br | 73.5 | 79.4 | 39.5 | > 100 | > 100 | 45.1 | 63.9 | 69.8 | > 100 | > 100 |
| CCCCCCCCCCCCOP(=O)(O)OCC(N)C(=O)O (configuration not stated) | 68.5 | > 100 | > 100 | 43.2 | 41.7 | > 100 | 35.1 | > 100 | > 100 | 51.8 |
| Cn1/c(=N\S(=O)(=O)c2ccccc2)n(S(=O)(=O)c2ccccc2)c2ccccc21 | > 100 | > 100 | > 100 |  | > 100 | > 100 | > 100 | > 100 | > 100 | > 100 |
| Cc1cc(C)nc(SC(C)C(=O)N/N=C/c2ccc(OCc3ccccc3)cc2)n1 (configuration not stated) | 41.9 | > 100 | > 100 | > 100 | > 100 | > 100 | 58.7 | 66.6 | > 100 | 46.1 |
| Brc1ccc2c([C@H]3CN[C@@H](c4c[nH]c5cc(Br)ccc45)CN3)c[nH]c2c1 | 7.15 | 23.2 | 3.15 | 4.15 | 19.3 | 4.01 | 15.2 | 6.6 | 10.5 | 9.76 |
| CC(=C(C(N)=O)C(N)=O)C1C=C(c2cccs2)CC(c2ccc(Cl)cc2)=C1O (configuration not stated) | > 100 | > 100 | > 100 | > 100 | > 100 | > 100 | > 100 | > 100 | > 100 | > 100 |
| CCOC(=O)c1c(N2CCCC2)[nH]c(=O)c(C(c2ccco2)c2c(O)c(C(=O)OCC)c(N3CCCC3)[nH]c2=O)c1O | > 100 | > 100 | > 100 | > 100 | > 100 | > 100 | > 100 | > 100 | > 100 | > 100 |
| CN(C)c1ccccc1CN1CCCN(Cc2ccccc2N(C)C)C1c1ccncc1 | 32.1 | 38 | 32.5 | 28.5 | 29.8 | 26.5 | > 100 | 22.4 | 40.9 | 36.5 |
| Cc1cc(Cc2c(F)c(F)c(C(c3cc(C)no3)c3c(F)c(F)c(F)c(F)c3F)c(F)c2F)on1 (configuration not stated) | > 100 | > 100 | > 100 | > 100 | > 100 | > 100 | > 100 | 8.08 | > 100 | > 100 |
| COc1ccc(OC)c(CC2CCc3nc(N)nc(N)c3C2)c1 (configuration not stated) | > 100 | > 100 | 25 | > 46 | 27.7 | > 100 | 52.7 | 4.37 | > 100 | 43.6 |
| Nc1nc(Cl)cc(NCCC2(CO)CCC2)n1 | > 100 | > 100 | > 100 | > 100 | > 100 | > 100 | > 100 | > 100 | > 100 | > 100 |
| O=C(/C=C/c1ccc(O)c(O)c1)c1cc(O)cc(O)c1 | > 100 | 57.4 | 3.73 |  | 40.1 | 39 | 28.5 | 22.8 | 28.9 | 28.2 |
| O=C1/C(=C/c2cccc(Br)c2)CSC/C1=C\c1cccc(Br)c1 | 6.42 | 19.9 | 4.14 | 7.26 | 5.14 | 5.67 | 10.4 | 3.79 | 15.5 | 12 |
